Patent US6255517A, “Thymol derivatives having anti-tumor activity, and anti-cancer agent comprising the same” (Zee; Ok Pyo, priority 1998, dated 2001)
Like-named read-outs stand apart in the source and are kept apart here.

Columns and labels:
Format in all cases: cell-based
[1] = test system: SK-MEL-2; experiment: SRB cytotoxicity (anti-tumor activity) in vitro, SK-MEL-2; conditions: Homo sapiens, SK-MEL-2 malignant melanoma, 48 hours, read-out: ED50 (the source's name)
Description: (§1) Anti-Tumor (Cyto-Toxicity) Effect in vitro of the Compound According to the Present Invention
(§2) The method for detecting cyto-toxicity employed in the present experiment is Sulforhodamin B Bioassay (SRB) method, which was developed by National Cancer Institute (NCI) in the United States in 1989, for the purpose of measuring anti-tumor activity in vitro.
(§3) The tumor cells used in the experiments via SRB method are listed below:
SK-MEL-2: malignant melanoma, metastasis to skin of thigh
(§4) The tumor cells listed above are all human tumor cell-lines, which were distributed from NCI in the United States and subcultured in Korea Chemical Institute. As a culture medium, RPMI 1640 culture medium supplemented with 5% FBS (fetal bovine serum) was used. Cultivation was performed in an 5% CO2 incubator with constant temperature (37° C.) and humidity. The subculture was carried out every three or four days, and a solution of 0.25% tyrosine and 3 mM trans-1,2-diaminocyclohexane-n,n,n,n-tetracetic acid (CDTA) dissolved in PBS (phosphate buffered saline) was used in order to release cells from the surface of the container.
(§5) The test compound synthesized according to the present invention was diluted to have a concentration of 30.0 μg/ml, 10.0 μg/ml, 3.0 μg/ml, 1.0 μg/ml, 0.3 μg/ml and 0.1 μg/ml, respectively, and the cyto-toxicity (anti-tumor activity) of the compound was measured. The maximum concentration of the sample was not more than 30.0 μg/ml. In order to prepare the samples for detection, DMSO (dimethylsulfoxide) was used, if necessary. The concentration of DMSO added was not more than 0.5%. Before added to the tumor cells, the sample solution, which was diluted via several steps, is filtered through a Millipore filter. In a sterile condition, the sample for detecting cyto-toxicity was prepared by means of SRB method using human tumor cell-lines such as A549, SK-OV-3, SK-MEL-2, XF498 and HCT15.
(§6) The subcultured tumor cells were released from the surface of instrument by using tyrosine-CDTA solution, and then charged on a 96-well flat bottom microplate to make the cell number 5×10^3 (A549, HCT15), 1×10^4 (SK-MEL-2, XF498) and 2×10^4 (SK-OV-3) for each cell. The tumor cells are attached on the bottom by cultivating in a CO2 incubator. After removing the culture medium by using an aspirator, the medium is eliminated by using log dose of six concentrations. To each well, 100 μl of 10% TCA (trichloroacetic acid) is added, and the plate was left for 1 hour at 4° C. to fix the cells on the bottom surface of the plate.
(§7) Then, the plate was washed with distilled water 5-6 times to completely remove the residual TCA solution, and dried up at room temperature. To each well of the completely dried plate, 100 μl of dye solution, in which 0.4% SRB solution was dissolved, was added to dye the cells for 30 minutes, and the cells were washed with 1% acetic acid to remove excess SRB which was not combined with the cells. The dyed cell plates were dried at room temperature, and 100 μl of 10 mM trisma base solution was added to each well. The solution was mixed by a titer plate shaker for 10 minutes to elute the dye solution. Then, the absorbance at 520 nm was measured by using a microplate reader.
(§8) In order to calculate the cyto-toxicity (anti-tumor activity) of the samples on tumor cells, the number of tumor cells at the point of adding the sample (Tz, zero time), the number of cells when only an excess amount of culture medium was added instead of the sample and cultured for 48 hours (C, control), and the number of cells when each concentration of the sample was added and cultured for 48 hours (T, test) were measured respectively. The cyto-toxicity was determined according to the following formulas:
(§9) When Tz>T: [(T-Tz)/(C-Tz)]×100
(§10) When Tz<T: [(T-Tz)/Tz]×100
(§11) From the calculated values thus obtained, ED50 (50% effective dose) [the concentration when the sample inhibits 50% of the growth of the tumor cells] was determined by the use of data regression tool of LOTUS program. […]

[2] = test system: A549; experiment: SRB cytotoxicity (anti-tumor activity) in vitro, A549; conditions: Homo sapiens
Description: as §1, §2, §3
A549: non small cell lungcarcinoma
as §4, §5, §6, §7, §8, §9, §10, §11

[3] = test system: SK-OV-3; experiment: SRB cytotoxicity (anti-tumor activity) in vitro, SK-OV-3; conditions: Homo sapiens, SK-OV-3 ovary adenocarcinoma, 48 hours, read-out: ED50 (the source's name)
Description: as §1, §2, §3
SK-OV-3: adenocarcinoma, ovary malignant ascites
as §4, §5, §6, §7, §8, §9, §10, §11

[4] = test system: HCT15; experiment: SRB cytotoxicity (anti-tumor activity) in vitro, HCT15; conditions: Homo sapiens, HCT-15, HCT15 colon adenocarcinoma, 48 hours, read-out: ED50 (the source's name)
Description: as §1, §2, §3
HCT15: colon adenocarcinoma
as §4, §5, §6, §7, §8, §9, §10, §11

[5] = test system: XF498; experiment: SRB cytotoxicity (anti-tumor activity) in vitro, XF498; conditions: Homo sapiens, XF498 central nerve system tumor, 48 hours, read-out: ED50 (the source's name)
Description: as §1, §2, §3
XF498: central nerve system tumor
as §4, §5, §6, §7, §8, §9, §10, §11

[6] = A549 non small cell lung carcinoma, SRB, 48 hours, read-out: ED50 (the source's name)

SMILES | IC50 [1] | IC50 [2, 6] | IC50 [3] | IC50 [4] | IC50 [5] | IC50 ([2]; A549, 48 h, read-out: ED50)
C=C(COS(=O)(=O)c1ccc(OC)cc1)c1ccc(C)cc1OC(C)=O [13'-3, 10-(4-Methoxybenzenesulfoxy)-8,9-methylenethymol acetate] | 8.4 µM | 28.2 µM | 27.4 µM | 2.6 µM |  | 
Cc1ccc(C2(COC(=O)C(C)C)CO2)c(OC(=O)C(C)C)c1 (stereo not drawn) [Compound 11, 10-isobutyryloxy-8,9-epoxythymol isobutyrate] | 11.6 µM | 40.5 µM | 8.3 µM | 10.8 µM | 37.2 µM | 
Cc1ccc(C2(COC(=O)Cc3ccccc3)CO2)c(OC(=O)C(C)C)c1 (stereo not drawn) [Compound 11-1, 10-Phenylacetoxy-8,9-epoxythymol isobutyrate] | 10.5 µM |  | 7.9 µM | 9.5 µM | 32.5 µM | 35.5 µM
Cc1ccc(C2(COC(=O)Cc3ccc([N+](=O)[O-])cc3)CO2)c(OC(=O)C(C)C)c1 (stereo not drawn) [Compound 11-2, 10-(4-Nitrophenylacetoxy)-8,9-epoxythymol isobutyrate] | 9.9 µM | 32.1 µM | 14 µM | 8.7 µM | 28.4 µM | 
Cc1ccc(C2(COC(=O)Cc3ccc(F)cc3)CO2)c(OC(=O)C(C)C)c1 (stereo not drawn) [Compound 11-3, 10-(4-Fluorophenylacetoxy)-8,9-epoxythymol isobutyrate] | 3.7 µM | 10.7 µM | 1 µM | 0.6 µM | 3.1 µM | 
CC(=O)Oc1cc(C)ccc1C1(COC(=O)Cc2ccc([N+](=O)[O-])cc2)CO1 (stereo not drawn) [Compound 14-3, 10-(4-Nitrophenylacetoxy)-8,9-epoxythymol acetate] | 11 µM | 38.3 µM | 25.6 µM | 10.6 µM | 35.4 µM | 
CC(=O)OCC1(c2ccc(C)cc2OC(C)=O)CO1 (stereo not drawn) [Compound 14-8, 10-Acetoxy-8,9-epoxythymol acetate] | 14.9 µM | 51.2 µM | 12.6 µM | 13.3 µM | 45.5 µM | 
CC(=O)Oc1cc(C)ccc1C(O)(CO)COC(=O)Cc1ccccc1 (stereo not drawn) [Compound 15-1, 10-Phenylacetoxy-8,9-dihydroxythymol acetate] | 14.8 µM |  | 39.9 µM | 11.6 µM | 59.9 µM | > 100 µM
CC(=O)Oc1cc(C)ccc1C(O)(CO)COC(=O)Cc1ccc([N+](=O)[O-])cc1 (stereo not drawn) [Compound 15-2, 10-(4-Nitrophenylacetoxy)-8,9-dihydroxythymol acetate] | 12.8 µM | > 100 µM | 25.8 µM | 20.2 µM | 45.1 µM | 
COc1ccc(CC(=O)OCC(O)(CO)c2ccc(C)cc2OC(C)=O)cc1 (stereo not drawn) [Compound 15-4, 10-(4-Methoxyphenylacetoxy)-8,9-dihydroxythymol acetate] | 12 µM | > 100 µM | 21.3 µM | 11.2 µM | 55.7 µM | 
CC(=O)Oc1cc(C)ccc1C(O)(CO)COC(=O)c1ccccc1 (stereo not drawn) [Compound 15-5, 10-Benzoxy-8,9-dihydroxythymol acetate] | 16.6 µM | > 100 µM | 35.1 µM | 12.7 µM | 60.4 µM | 
CC(=O)Oc1cc(C)ccc1C(O)(CO)COC(=O)c1ccc([N+](=O)[O-])cc1 (stereo not drawn) [Compound 15-6, 10-(4-Nitrobenzoxy)-8,9-dihydroxythymol acetate] | 10.9 µM | > 100 µM | 19.6 µM | 10.4 µM | 40.9 µM | 
COc1ccc(C(=O)OCC(O)(CO)c2ccc(C)cc2OC(C)=O)cc1 (stereo not drawn) [Compound 15-7, 10-(4-Methoxybenzoxy)-8,9-dihydroxythymol acetate] | 14.9 µM | > 100 µM | 38.2 µM | 15 µM | 63.3 µM | 
Cc1ccc(C(O)(CO)COC(=O)Cc2ccc(F)cc2)c(OC(=O)C(C)C)c1 (stereo not drawn) [Compound 15-8, 10-(4-Fluorophenylacetoxy)-8,9-dihydroxythymol isobutyrate] | 10.8 µM | > 100 µM | 24.2 µM | 12.2 µM | 55.9 µM | 
